Source: ChEMBL document CHEMBL5291721, “A preclinical secondary pharmacology resource illuminates target-adverse drug reaction associations of marketed drugs” (Nat Commun, 2023)

Assays:
Histamine H2 receptor = Histamine H2 receptor (Homo sapiens, UniProt P25021); assay type: functional, cell-based
Cannabinoid receptor 1 = Cannabinoid receptor 1 (Homo sapiens, UniProt P21554); assay type: functional, cell-based
[1] = target: T1, Alpha-1A adrenergic receptor (Homo sapiens, UniProt P35348); assay type: functional, cell-based
T1 sequence (P35348 whole entry): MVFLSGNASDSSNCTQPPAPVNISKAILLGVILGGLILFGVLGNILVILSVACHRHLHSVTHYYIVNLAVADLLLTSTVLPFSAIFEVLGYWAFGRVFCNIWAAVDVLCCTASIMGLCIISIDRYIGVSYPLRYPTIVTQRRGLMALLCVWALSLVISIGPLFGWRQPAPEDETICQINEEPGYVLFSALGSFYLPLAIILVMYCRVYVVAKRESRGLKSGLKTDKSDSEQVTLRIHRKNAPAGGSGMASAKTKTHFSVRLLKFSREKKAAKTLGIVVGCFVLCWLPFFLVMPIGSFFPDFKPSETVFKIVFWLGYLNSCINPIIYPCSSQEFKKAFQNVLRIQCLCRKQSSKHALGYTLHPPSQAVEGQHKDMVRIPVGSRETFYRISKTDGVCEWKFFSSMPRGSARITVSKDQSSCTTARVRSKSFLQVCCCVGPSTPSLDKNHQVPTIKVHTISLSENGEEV

[2] = target: Neuronal acetylcholine receptor subunit alpha-4 (Homo sapiens, UniProt P43681)
Sequence of Neuronal acetylcholine receptor subunit alpha-4 (P43681 whole entry): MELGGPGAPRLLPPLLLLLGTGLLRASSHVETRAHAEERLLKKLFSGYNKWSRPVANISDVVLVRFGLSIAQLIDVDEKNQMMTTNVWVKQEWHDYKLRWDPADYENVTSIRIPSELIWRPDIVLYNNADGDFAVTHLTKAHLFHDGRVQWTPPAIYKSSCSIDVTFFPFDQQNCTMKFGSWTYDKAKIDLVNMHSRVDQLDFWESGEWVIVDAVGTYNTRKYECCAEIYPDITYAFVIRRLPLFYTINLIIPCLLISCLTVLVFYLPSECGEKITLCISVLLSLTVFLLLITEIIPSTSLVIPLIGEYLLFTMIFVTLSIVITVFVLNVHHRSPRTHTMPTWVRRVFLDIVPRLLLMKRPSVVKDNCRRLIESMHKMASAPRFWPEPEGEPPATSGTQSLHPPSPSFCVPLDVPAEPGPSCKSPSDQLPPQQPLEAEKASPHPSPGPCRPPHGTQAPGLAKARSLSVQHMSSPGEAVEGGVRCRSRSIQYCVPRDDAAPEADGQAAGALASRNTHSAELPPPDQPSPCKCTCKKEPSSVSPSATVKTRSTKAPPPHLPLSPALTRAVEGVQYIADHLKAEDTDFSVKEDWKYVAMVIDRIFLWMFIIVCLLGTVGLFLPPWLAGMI

[3] = target: Sodium-dependent noradrenaline transporter (Homo sapiens, UniProt P23975)
Sequence of Sodium-dependent noradrenaline transporter (P23975 whole entry): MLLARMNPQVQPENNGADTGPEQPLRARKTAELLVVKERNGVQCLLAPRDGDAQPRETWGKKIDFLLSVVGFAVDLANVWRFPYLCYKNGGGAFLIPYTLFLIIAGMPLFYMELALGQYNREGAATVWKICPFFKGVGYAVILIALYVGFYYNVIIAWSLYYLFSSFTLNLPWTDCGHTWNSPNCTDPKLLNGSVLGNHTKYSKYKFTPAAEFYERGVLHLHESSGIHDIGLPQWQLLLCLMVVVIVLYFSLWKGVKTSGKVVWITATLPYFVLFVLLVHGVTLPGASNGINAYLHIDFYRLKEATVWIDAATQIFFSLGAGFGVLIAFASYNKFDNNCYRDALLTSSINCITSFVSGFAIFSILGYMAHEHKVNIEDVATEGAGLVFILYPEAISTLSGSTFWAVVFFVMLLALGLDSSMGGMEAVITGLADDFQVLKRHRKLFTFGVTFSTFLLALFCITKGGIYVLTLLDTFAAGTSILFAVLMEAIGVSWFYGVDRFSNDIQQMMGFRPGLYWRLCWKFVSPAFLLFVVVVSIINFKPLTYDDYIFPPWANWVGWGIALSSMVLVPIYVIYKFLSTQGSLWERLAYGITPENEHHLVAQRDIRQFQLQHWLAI

[4] = target: T2, 5-hydroxytryptamine receptor 1A (Homo sapiens, UniProt P08908)
T2 sequence (P08908 whole entry): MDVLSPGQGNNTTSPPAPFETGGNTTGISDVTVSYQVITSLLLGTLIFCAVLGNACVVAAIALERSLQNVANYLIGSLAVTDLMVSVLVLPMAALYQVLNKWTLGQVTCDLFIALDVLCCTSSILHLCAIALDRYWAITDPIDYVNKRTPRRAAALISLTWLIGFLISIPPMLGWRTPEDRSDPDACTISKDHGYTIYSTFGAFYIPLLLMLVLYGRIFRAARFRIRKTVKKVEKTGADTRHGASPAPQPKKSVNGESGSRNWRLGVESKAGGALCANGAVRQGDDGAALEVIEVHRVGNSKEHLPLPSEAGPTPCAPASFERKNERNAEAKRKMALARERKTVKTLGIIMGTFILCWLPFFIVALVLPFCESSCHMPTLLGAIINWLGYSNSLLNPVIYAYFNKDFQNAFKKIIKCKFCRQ

[5] = target: 5-hydroxytryptamine receptor 2B (Homo sapiens, UniProt P41595); assay type: functional, cell-based
[6] = target: T3, Muscarinic acetylcholine receptor M2 (Homo sapiens, UniProt P08172); assay type: functional, cell-based
T3 sequence (P08172 whole entry): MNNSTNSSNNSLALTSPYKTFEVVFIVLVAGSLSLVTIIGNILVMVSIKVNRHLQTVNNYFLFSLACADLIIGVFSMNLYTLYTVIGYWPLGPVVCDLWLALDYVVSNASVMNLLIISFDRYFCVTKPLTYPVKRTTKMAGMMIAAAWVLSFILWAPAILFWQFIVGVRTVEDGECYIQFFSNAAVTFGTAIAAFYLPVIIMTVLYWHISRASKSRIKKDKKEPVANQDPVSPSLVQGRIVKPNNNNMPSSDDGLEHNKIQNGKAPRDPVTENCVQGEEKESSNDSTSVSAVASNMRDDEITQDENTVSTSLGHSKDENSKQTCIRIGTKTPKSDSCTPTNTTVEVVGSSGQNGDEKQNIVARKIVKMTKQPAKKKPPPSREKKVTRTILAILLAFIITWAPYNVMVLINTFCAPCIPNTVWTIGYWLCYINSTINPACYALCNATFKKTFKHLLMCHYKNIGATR

[7] = target: T3, Muscarinic acetylcholine receptor M2
[8] = target: Gamma-aminobutyric acid receptor subunit alpha-1 (Rattus norvegicus, UniProt P62813)
Sequence of Gamma-aminobutyric acid receptor subunit alpha-1 (P62813 whole entry): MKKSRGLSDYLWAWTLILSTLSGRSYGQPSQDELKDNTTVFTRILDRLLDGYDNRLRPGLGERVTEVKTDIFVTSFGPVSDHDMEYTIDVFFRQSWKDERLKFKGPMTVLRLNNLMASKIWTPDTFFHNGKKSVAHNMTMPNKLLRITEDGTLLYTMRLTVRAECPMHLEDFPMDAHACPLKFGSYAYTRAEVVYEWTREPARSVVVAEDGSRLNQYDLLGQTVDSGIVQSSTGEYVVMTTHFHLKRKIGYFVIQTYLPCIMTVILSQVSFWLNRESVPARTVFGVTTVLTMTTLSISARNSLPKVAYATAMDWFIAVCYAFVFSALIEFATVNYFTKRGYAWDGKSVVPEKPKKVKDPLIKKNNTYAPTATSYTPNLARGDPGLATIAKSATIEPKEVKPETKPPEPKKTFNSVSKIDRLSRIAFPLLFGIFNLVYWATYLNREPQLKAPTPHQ

D(3) dopamine receptor = D(3) dopamine receptor (Homo sapiens, UniProt P35462)
Sequence of D(3) dopamine receptor (P35462 whole entry): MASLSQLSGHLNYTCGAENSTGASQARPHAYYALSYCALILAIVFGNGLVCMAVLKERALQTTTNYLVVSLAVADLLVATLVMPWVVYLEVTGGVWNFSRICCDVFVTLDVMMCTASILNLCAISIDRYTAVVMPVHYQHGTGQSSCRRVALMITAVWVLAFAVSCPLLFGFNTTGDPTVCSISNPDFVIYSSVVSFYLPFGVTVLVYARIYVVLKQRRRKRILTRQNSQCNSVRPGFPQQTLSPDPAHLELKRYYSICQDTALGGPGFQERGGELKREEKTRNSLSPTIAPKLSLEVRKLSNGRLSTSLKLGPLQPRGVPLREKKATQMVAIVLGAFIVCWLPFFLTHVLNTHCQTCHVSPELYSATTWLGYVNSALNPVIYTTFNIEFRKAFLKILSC

Histamine H3 receptor = Histamine H3 receptor (Homo sapiens, UniProt Q9Y5N1)
Sequence of Histamine H3 receptor (Q9Y5N1 whole entry): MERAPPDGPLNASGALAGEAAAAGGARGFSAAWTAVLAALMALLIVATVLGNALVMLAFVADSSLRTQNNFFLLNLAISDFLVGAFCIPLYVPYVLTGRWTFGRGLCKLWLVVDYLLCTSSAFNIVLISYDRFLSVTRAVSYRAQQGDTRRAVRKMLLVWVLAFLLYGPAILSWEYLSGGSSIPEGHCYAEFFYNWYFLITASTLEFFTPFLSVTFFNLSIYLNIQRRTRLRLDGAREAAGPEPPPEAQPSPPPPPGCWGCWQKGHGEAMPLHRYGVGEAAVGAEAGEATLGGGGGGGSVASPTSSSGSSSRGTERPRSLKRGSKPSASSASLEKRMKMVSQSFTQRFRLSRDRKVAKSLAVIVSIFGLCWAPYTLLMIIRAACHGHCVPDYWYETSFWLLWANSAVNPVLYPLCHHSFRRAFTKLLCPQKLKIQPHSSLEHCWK

Thromboxane A2 receptor = target: T4, Thromboxane A2 receptor (Homo sapiens, UniProt P21731); assay type: functional, cell-based
T4 sequence (P21731 whole entry): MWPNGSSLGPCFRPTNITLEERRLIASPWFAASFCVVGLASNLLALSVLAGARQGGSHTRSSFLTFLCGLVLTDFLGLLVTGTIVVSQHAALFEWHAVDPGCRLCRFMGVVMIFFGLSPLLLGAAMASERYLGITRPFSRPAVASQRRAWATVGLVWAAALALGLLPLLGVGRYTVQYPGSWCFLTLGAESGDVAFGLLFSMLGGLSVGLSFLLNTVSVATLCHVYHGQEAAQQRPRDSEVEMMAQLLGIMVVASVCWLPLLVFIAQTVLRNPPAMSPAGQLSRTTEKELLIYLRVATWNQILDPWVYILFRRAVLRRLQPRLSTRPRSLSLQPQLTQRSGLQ

[9] = target: Kappa-type opioid receptor (Homo sapiens, UniProt P41145)
[10] = target: Vascular endothelial growth factor receptor 2 (Homo sapiens, UniProt P35968); assay type: functional
Sequence of Vascular endothelial growth factor receptor 2 (P35968 whole entry): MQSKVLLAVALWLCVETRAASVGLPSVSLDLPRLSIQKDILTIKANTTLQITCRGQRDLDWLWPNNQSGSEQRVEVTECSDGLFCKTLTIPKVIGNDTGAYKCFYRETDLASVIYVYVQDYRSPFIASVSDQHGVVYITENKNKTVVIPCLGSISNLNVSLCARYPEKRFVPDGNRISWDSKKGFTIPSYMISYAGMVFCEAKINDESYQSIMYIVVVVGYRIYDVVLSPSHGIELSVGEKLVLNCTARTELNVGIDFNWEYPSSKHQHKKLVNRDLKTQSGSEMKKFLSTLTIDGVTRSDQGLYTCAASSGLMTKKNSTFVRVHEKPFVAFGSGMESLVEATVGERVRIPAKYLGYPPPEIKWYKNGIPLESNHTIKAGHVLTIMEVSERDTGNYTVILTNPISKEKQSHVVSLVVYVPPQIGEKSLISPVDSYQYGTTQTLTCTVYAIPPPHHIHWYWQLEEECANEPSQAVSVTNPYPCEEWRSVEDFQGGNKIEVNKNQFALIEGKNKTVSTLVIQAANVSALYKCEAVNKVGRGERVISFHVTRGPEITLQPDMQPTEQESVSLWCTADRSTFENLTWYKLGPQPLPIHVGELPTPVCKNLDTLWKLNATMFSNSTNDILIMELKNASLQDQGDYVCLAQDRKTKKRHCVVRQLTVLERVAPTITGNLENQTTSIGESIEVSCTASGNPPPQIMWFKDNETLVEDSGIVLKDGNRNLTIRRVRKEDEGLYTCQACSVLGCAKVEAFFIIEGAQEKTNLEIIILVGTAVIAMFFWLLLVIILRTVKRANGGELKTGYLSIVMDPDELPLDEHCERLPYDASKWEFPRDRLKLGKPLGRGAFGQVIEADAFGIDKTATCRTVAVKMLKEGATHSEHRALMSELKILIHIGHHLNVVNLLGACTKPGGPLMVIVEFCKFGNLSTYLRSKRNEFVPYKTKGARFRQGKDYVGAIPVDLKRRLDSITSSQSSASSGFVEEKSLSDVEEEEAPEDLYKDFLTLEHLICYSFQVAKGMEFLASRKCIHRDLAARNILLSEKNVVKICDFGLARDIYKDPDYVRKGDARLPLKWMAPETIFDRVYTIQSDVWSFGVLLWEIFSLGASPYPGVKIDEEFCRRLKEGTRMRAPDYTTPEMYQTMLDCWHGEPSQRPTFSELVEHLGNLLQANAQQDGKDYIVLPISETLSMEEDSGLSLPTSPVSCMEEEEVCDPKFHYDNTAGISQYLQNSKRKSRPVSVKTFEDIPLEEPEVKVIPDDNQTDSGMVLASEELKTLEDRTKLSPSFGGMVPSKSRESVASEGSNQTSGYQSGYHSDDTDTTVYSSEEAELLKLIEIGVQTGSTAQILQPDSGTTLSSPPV

[11] = target: T5, Alpha-2A adrenergic receptor (Homo sapiens, UniProt P08913)
T5 sequence (P08913 whole entry): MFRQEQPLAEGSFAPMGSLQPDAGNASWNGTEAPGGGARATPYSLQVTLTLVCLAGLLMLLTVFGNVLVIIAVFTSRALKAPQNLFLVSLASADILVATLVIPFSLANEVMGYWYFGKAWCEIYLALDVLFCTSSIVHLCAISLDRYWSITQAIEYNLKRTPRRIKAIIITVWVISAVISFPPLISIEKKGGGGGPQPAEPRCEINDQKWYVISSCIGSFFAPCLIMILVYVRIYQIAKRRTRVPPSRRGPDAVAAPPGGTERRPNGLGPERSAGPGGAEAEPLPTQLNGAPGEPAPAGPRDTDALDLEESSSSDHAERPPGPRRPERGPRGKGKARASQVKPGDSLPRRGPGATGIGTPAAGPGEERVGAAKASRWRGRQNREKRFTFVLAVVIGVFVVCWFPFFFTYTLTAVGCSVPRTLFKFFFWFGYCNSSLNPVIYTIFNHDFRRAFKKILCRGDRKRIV
Also: assay procedure not described here.

Sequence of Histamine H2 receptor (P25021 whole entry): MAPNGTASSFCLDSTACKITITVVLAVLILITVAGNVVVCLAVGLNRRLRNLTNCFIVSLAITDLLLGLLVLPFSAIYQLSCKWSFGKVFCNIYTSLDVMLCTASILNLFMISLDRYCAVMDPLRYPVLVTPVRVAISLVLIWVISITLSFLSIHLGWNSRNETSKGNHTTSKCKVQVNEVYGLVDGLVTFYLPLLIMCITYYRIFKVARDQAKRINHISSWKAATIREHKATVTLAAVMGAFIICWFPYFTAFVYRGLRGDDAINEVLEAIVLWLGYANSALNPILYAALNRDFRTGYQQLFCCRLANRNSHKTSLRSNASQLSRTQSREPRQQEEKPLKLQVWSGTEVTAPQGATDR
Sequence of Cannabinoid receptor 1 (P21554 whole entry): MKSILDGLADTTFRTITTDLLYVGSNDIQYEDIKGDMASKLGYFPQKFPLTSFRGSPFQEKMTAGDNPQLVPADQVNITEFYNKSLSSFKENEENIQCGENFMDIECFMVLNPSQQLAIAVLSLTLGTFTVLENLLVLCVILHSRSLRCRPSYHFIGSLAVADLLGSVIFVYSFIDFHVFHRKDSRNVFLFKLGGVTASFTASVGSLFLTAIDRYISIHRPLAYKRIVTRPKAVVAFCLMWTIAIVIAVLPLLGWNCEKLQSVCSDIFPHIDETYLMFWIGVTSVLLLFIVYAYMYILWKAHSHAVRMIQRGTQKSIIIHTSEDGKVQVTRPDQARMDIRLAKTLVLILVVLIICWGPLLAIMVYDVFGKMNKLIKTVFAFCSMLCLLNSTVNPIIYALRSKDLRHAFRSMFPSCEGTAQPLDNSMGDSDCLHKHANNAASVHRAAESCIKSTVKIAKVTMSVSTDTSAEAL

CC(CN1c2ccccc2Sc2ccccc21)N(C)C (centres undefined) [PROMETHAZINE]
AC50 (Histamine H2 receptor): > 10 µM
AC50 (Cannabinoid receptor 1): > 30 µM
AC50 [1]: 1.7 µM
AC50 [2]: > 10 µM
AC50 [3]: 11.3 µM
AC50 [4]: 0.7 µM
AC50 [5]: > 30 µM
AC50 [6]: 0.322 µM
AC50 [7]: 0.03 µM
AC50 [8]: > 10 µM
AC50 (D(3) dopamine receptor): 0.28 µM
AC50 (Histamine H3 receptor): > 30 µM
AC50 (Thromboxane A2 receptor): > 3 µM

Cn1cc(C(=O)[C@@H]2CCc3nc[nH]c3C2)c2ccccc21 [RAMOSETRON]
AC50 (Histamine H2 receptor): > 30 µM
AC50 (Cannabinoid receptor 1): > 30 µM
AC50 [9]: 17 µM
AC50 [1]: > 30 µM
AC50 [2]: > 30 µM
AC50 [6]: > 30 µM
AC50 [8]: > 30 µM
AC50 (D(3) dopamine receptor): > 30 µM

CN(CCOc1ccc(CC2SC(=O)NC2=O)cc1)c1ccccn1 (centres undefined) [ROSIGLITAZONE]
AC50 (Histamine H2 receptor): > 30 µM
AC50 (Cannabinoid receptor 1): > 30 µM
AC50 [9]: > 30 µM
AC50 [1]: 11 µM
AC50 [2]: > 30 µM
AC50 [6]: 22 µM
AC50 [8]: > 30 µM
AC50 (D(3) dopamine receptor): > 30 µM

C[N+](C)(C)CCOC(=O)CCC(=O)OCC[N+](C)(C)C [SUXAMETHONIUM]
AC50 [10]: > 30 µM
AC50 [3]: > 30 µM
AC50 [4]: > 30 µM
AC50 [11]: 16.6 µM
AC50 [5]: > 30 µM
AC50 [7]: > 30 µM
AC50 (Histamine H3 receptor): > 30 µM
AC50 (Thromboxane A2 receptor): > 30 µM

Cc1ccc(C(=O)c2ccc(CC(=O)O)n2C)cc1 [TOLMETIN]
AC50 [10]: > 30 µM
AC50 [3]: > 30 µM
AC50 [4]: > 30 µM
AC50 [11]: > 30 µM
AC50 [5]: > 30 µM
AC50 [7]: > 30 µM
AC50 (Histamine H3 receptor): > 30 µM
AC50 (Thromboxane A2 receptor): > 30 µM

C[C@]12C=CC(=O)C=C1CC[C@H]1[C@@H]3C[C@@H](O)[C@](O)(C(=O)CO)[C@@]3(C)C[C@H](O)[C@@]12F [TRIAMCINOLONE]
AC50 [10]: > 30 µM
AC50 [3]: > 30 µM
AC50 [4]: > 30 µM
AC50 [11]: > 30 µM
AC50 [5]: > 30 µM
AC50 [7]: > 30 µM
AC50 (Histamine H3 receptor): > 30 µM
AC50 (Thromboxane A2 receptor): > 30 µM

CC(C)C[C@H](NC(=O)[C@@H](O)[C@H](N)Cc1ccccc1)C(=O)O [UBENIMEX]
AC50 (Histamine H2 receptor): > 30 µM
AC50 (Cannabinoid receptor 1): > 30 µM
AC50 [9]: > 30 µM
AC50 [1]: > 30 µM
AC50 [2]: > 30 µM
AC50 [3]: > 30 µM
AC50 [4]: > 30 µM
AC50 [11]: > 30 µM
AC50 [5]: > 30 µM
AC50 [6]: > 30 µM
AC50 [7]: > 30 µM
AC50 [8]: > 30 µM
AC50 (D(3) dopamine receptor): > 30 µM
AC50 (Histamine H3 receptor): > 30 µM
AC50 (Thromboxane A2 receptor): > 30 µM

CC(C)[C@H](N)C(=O)OCCOCn1cnc2c(=O)[nH]c(N)nc21 [VALACYCLOVIR]
AC50 (Histamine H2 receptor): > 10 µM
AC50 (Cannabinoid receptor 1): > 30 µM
AC50 [9]: > 10 µM
AC50 [1]: > 30 µM
AC50 [2]: > 10 µM
AC50 [6]: > 10 µM
AC50 [8]: > 10 µM
AC50 (D(3) dopamine receptor): > 10 µM

CCC1=C[C@@H]2CN(C1)Cc1c([nH]c3ccccc13)[C@@](C(=O)OC)(c1cc3c(cc1OC)N(C)[C@H]1[C@@](O)(C(=O)OC)[C@H](OC(C)=O)[C@]4(CC)C=CCN5CC[C@]31[C@@H]54)C2 [VINORELBINE]
AC50 [10]: > 30 µM
AC50 [3]: > 30 µM
AC50 [4]: > 30 µM
AC50 [11]: > 30 µM
AC50 [5]: > 30 µM
AC50 [7]: > 30 µM
AC50 (Histamine H3 receptor): > 30 µM
AC50 (Thromboxane A2 receptor): > 30 µM
